# Experimental data from patent US20240294518A1, “NITROGEN-CONTAINING HETEROCYCLIC COMPOUND” (Evopoint Biosciences Co., Ltd., priority 2021, published 2024).
# Target: HPK1 kinase (Homo sapiens, UniProt Q92918)
# Experiment: HPK1 kinase inhibition assay, ADP-Glo platform
# Type: biochemical
# Settings: 0.3 nM HPK1, 5 μM ATP, 0.05 mg/mL MBP
# Description: The compounds to be tested were each dissolved in 100% DMSO, with the mother liquor concentration being 10 mM. The liquor was 3-fold diluted at a test starting concentration of 10 μM to yield ten data points, with two replicates set for each point.
# The inhibition of the activity of HPK1 kinase by the compound was assayed using an ADP-Glo™ platform. The reaction was performed in a 384-well plate containing 0.3 nM HPK1, 5 μM ATP, 0.05 mg/mL MBP, 0-10 μM compound, and 1% DMSO per well. The reaction buffer was as follows: 50 mM HEPES, 10 mM MgCl2, 1 mM EGTA, 1 mM DTT, 0.01% Brij 35, pH=7.5. The compound and the kinase were incubated at 25° C. for 15 min, and a substrate and ATP were added to initiate the reaction. After 1 h of reaction at 25° C., the ADP-Glo™ reagent was added, and the reaction was terminated, followed by incubation at 25° C. for 1 h. The kinase detection reagent was added, and after 1 h of incubation at 25° C., the chemiluminescence signal was detected. Based on this reading, inhibition percentage was calculated, and IC50 for the compound was calculated using four-parameter fitting.
# Sequence of HPK1 kinase (Q92918 whole entry): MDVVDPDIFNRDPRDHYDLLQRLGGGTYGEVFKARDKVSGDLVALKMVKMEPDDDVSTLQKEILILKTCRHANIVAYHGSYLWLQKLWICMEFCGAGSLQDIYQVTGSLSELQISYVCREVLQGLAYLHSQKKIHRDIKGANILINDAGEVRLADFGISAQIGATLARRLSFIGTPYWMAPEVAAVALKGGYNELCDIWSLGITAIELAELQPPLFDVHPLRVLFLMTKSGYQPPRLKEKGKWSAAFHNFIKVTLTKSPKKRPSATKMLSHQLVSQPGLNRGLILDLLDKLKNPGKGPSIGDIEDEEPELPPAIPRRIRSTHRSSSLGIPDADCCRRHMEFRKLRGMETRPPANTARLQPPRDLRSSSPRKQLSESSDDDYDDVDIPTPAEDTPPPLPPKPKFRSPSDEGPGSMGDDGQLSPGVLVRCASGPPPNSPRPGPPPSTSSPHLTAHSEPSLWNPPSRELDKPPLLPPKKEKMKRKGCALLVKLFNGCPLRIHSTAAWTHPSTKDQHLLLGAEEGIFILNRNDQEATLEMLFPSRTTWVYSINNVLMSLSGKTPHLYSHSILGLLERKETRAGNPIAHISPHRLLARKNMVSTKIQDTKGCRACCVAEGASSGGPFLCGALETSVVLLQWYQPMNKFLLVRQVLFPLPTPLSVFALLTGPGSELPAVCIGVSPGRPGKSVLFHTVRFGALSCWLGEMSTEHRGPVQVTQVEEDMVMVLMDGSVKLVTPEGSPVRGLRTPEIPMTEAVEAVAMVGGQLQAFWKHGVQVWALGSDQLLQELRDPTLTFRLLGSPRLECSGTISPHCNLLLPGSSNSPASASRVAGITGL
row,IC50 [nM],Compound
1,0.01 to 5,Cc1cc(-c2cnc3[nH]cc(C)c3c2)cc([C@@H]2COCCN2)c1C1CCOCC1 [Compound A-36]
2,5 to 10,COc1cc(-c2cnc3[nH]cc(C)c3c2)cc(C2COCCN2)c1C1CCOCC1 (stereo not drawn) [Compound A-9]
3,10 to 100,Cc1c[nH]c2ncc(-c3ccc(C4CCOCC4)c(CN4CCCC4)n3)cc12 [Compound A-26]
4,10 to 100,Cc1c[nH]c2ncc(-c3ccc(C4CCOCC4)c(C4COCCN4)n3)c(F)c12 (stereo not drawn) [Compound A-7]
5,10 to 100,Cc1c[nH]c2ncc(-c3cc(C4COCCN4)c(C4CCOCC4)cc3F)cc12 (stereo not drawn) [Compound A-11]
6,5 to 10,OCc1c[nH]c2ncc(-c3ccc(C4CCOCC4)c(C4COCCN4)n3)cc12 (stereo not drawn) [Compound A-21]
7,5 to 10,Cc1c[nH]c2ncc(-c3cc(Cl)c(C4=CCOCC4)c(C4COCCN4)c3)cc12 (stereo not drawn) [Compound A-13]
8,0.01 to 5,COc1cc(-c2cnc3[nH]cc(C(F)(F)F)c3c2)cc([C@@H]2COCCN2)c1C1CCOCC1 [Compound A-34]
9,0.01 to 5,COC(=O)c1c[nH]c2ncc(-c3ccc(C4CCOCC4)c(C4COCCN4)n3)cc12 (stereo not drawn) [Compound A-29]
10,5 to 10,Cc1c[nH]c2ncc(-c3ccc(C4CCOCC4)c(C4COCCN4)c3)c(F)c12 (stereo not drawn) [Compound A-3]
11,0.01 to 5,FC(F)(F)C1(c2c[nH]c3ncc(-c4ccc(C5CCOCC5)c([C@@H]5COCCN5)n4)cc23)CC1 [Compound A-30]
12,10 to 100,Cc1c[nH]c2ncc(-c3cc(C4COCCN4)c(C4CCOCC4)cc3Cl)cc12 (stereo not drawn) [Compound A-8]
13,5 to 10,C[C@H]1CCCN1Cc1nc(-c2cnc3[nH]cc(C4CC4)c3c2)ccc1C1CCOCC1 [Compound A-24]
14,0.01 to 5,COc1cc(-c2cnc3[nH]cc(C)c3c2)cc([C@@H]2COCCN2)c1C1CCOCC1 [Compound A-38]
15,0.01 to 5,Cc1cc(-c2cnc3[nH]cc(C(F)(F)F)c3c2)nc(C2COCCN2)c1C1CCOCC1 (stereo not drawn) [Compound A-27]
16,0.01 to 5,C[C@@H]1CCCN1Cc1nc(-c2cnc3[nH]cc(C4CC4)c3c2)ccc1C1CCOCC1 [Compound A-25]
17,0.01 to 5,Cc1cc(-c2cnc3[nH]cc(C(F)(F)F)c3c2)cc([C@@H]2COCCN2)c1C1CCOCC1 [Compound A-33]

row,IC50 [nM],Compound
1,5 to 10,Cc1cc(-c2cnc3[nH]cc(C(F)(F)F)c3c2)cc([C@H]2COCCN2)c1C1CCOCC1 [Compound A-32]
2,0.01 to 5,Cc1c[nH]c2ncc(-c3cc(O)c(C4CCOCC4)c(C4COCCN4)c3)cc12 (stereo not drawn) [Compound A-39]
3,10 to 100,COc1cc(-c2cnc3[nH]cc(C(F)(F)F)c3c2)cc([C@H]2COCCN2)c1C1CCOCC1 [Compound A-35]
4,0.01 to 5,c1nc2[nH]cc(C3CC3)c2cc1-c1ccc(C2CCOCC2)c(CN2CCCC2)n1 [Compound A-22]
5,5 to 10,FC(F)(F)c1c[nH]c2ncc(-c3ccc(C4CCOCC4)c(CN4CCCC4)n3)cc12 [Compound A-23]
6,0.01 to 5,FC(F)(F)c1c[nH]c2ncc(-c3ccc(C4CCOCC4)c([C@@H]4COCCN4)n3)cc12 [Compound A-18]
7,0.01 to 5,Cc1c[nH]c2ncc(-c3cc(Cl)c(C4CCOCC4)c(C4COCCN4)c3)cc12 (stereo not drawn) [Compound A-6]
8,0.01 to 5,Clc1c[nH]c2ncc(-c3ccc(C4CCOCC4)c([C@@H]4COCCN4)n3)cc12 [Compound A-20]
9,10 to 100,c1nc2[nH]cc(C3CC3)c2cc1-c1ccc(C2CCOCC2)c([C@H]2COCCN2)n1 [Compound A-16]
10,0.01 to 5,Cc1cc(-c2cnc3[nH]cc(C)c3c2)cc(C2COCCN2)c1C1CCOCC1 (stereo not drawn) [Compound A-5]
11,0.01 to 5,Cc1cc(-c2cnc3[nH]cc(C)c3c2)cc(C2COCCN2)c1C1=CCOCC1 (stereo not drawn) [Compound A-12]
12,0.01 to 5,c1nc2[nH]cc(C3CC3)c2cc1-c1ccc(C2CCOCC2)c([C@@H]2COCCN2)n1 [Compound A-15]
13,10 to 100,CN(C)Cc1nc(-c2cnc3[nH]cc(C(F)(F)F)c3c2)ccc1C1CCOCC1 [Compound A-28]
14,10 to 100,Cc1c[nH]c2ncc(-c3ccc(C4CCOCC4)c(C4COCCN4)c3F)cc12 (stereo not drawn) [Compound A-10]
15,10 to 100,Clc1c[nH]c2ncc(-c3ccc(C4CCOCC4)c([C@H]4COCCN4)n3)cc12 [Compound A-19]
16,0.01 to 5,"CN(C)C(=O)C#Cc1c[nH]c2ncc(-c3ccc(C4CCOCC4)c(C4COCCN4)c3)cc12 (single isomer, unassigned) [Compound A-14]"
